Source: patent US9585875B2, “TRPM8 antagonists” (Dompé S.P.A., priority 2011, dated 2017)
pIC50: −log10 of the molar value.

Assays:
Male Wistar rats [1] = test: Chronic constriction injury model, cold allodynia (acetone); type: in vivo, rat
Description: (§1) Male Wistar rats (220-250 g, Harlan Italy) were used (n=60). Animals were housed in a room with controlled temperature (22±1° C.), humidity (60±10%) and light (12 h per day) for at least a week before being used. Rats were randomly divided into sham, control and treatment groups; ten animals per group were used. All animal experiments were complied with the Italian (D.L. no.116 of Jan. 27, 1992) and associated guidelines in the European Communities Council (Directive of Nov. 24, 1986, 86/609/ECC).
(§2) Antiallodynic effects were assessed at 1 and 3 h post dose. Control animals received vehicle alone (0.5 ml/iv/rat; 10% solutol-NMP and 90% PBS).
(§3) Neuropathic pain behavior was induced by ligation of the sciatic nerve according to the method described by Bennett and Xie [Bennett G. J. and Xie Y. K. A peripheral mononeuropathy in rat that produces disorders of pain sensation like those seen in man, Pain, (1988) 33:87-107]. Briefly, rats were anaesthetized (100 mg/kg ketamine and 10 mg/kg xylazine i.p.) and the left sciatic nerve was exposed at the level of the thigh by blunt dissection through the biceps femoris. Proximal to the sciatic's trifurcation, about 12 mm of nerve was freed of adhering tissue and four ligatures were loosely tied around it with about 1 mm spacing so that the epineural circulation was preserved. The length of nerve thus affected was 6-8 mm long. The animals were allowed to recover and used the day after the surgery. Sham animals represent rats operated but not ligated.
Cold sensitivity was measured as the number of foot withdrawal responses after application of acetone to the dorsal surface of the paw. A drop of acetone (15-20° C.) was applied to the dorsal surface of the ligated paw with a syringe connected to a thin polyethylene tube while the rats were standing on a metal mesh. A brisk foot withdrawal response, after the spread of acetone over the dorsal surface of the paw, was considered as a sign of cold allodynia. Basal response was measured on the days before treatment (2nd, 6th and 13th). […]

TRPM8 [2] = target: T1, TRPM8 (Homo sapiens, UniProt Q7Z2W7); test: HTS cell-based Ca2+ mobilization assay (FLIPR TETRA) in HEK293/hTRPM8 cells, agonist Cooling Agent 10; design: expressed in transfected cells; settings: HEK293/hTRPM8, Cooling Agent 10 at EC80
T1 sequence (Q7Z2W7 whole entry): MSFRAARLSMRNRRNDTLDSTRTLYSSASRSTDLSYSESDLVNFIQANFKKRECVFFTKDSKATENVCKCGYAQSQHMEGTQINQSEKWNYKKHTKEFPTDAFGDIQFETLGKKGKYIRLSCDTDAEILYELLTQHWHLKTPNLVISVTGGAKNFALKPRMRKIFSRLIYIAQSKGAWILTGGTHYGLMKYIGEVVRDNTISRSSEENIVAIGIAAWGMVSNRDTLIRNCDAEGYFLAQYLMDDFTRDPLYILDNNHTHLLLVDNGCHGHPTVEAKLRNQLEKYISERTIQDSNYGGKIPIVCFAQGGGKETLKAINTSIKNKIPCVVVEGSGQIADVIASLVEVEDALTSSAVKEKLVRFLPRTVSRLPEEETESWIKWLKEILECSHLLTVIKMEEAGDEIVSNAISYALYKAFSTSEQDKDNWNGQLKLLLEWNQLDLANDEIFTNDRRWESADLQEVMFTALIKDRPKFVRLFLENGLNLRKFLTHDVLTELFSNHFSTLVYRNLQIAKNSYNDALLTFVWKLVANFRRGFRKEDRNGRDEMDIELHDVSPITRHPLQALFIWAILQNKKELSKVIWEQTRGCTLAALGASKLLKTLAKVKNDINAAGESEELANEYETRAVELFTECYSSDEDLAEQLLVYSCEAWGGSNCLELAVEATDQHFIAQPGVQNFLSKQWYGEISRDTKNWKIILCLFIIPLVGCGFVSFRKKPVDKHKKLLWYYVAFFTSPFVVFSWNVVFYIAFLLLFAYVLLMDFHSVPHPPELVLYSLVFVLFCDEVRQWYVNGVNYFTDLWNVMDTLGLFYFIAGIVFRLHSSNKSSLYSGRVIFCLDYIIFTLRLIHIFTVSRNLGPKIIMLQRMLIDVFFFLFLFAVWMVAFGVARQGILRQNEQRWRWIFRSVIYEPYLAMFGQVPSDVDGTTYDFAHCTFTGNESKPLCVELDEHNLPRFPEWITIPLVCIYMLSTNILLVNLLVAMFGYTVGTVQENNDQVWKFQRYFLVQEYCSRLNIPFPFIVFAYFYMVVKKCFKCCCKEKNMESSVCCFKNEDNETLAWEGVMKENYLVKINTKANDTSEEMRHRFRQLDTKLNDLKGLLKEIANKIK
From the text: A functional cell-based assay for the identification of TRPM8 receptor antagonists, optimised to allow high throughput screening at FLIPR^TETRA, was developed in HEK293 cells by stable pure clone selection and functional characterization with a fluorescent calcium sensitive dye.
TRPM8 was cloned into the multiple cloning site of pcDNA3 mammalian expression vector; the obtained construct pcDNA3/hTRPM8 was fully sequence verified and used for the transfection of HEK293 cell line. HEK293 cells stably transfected with TRPM8 gene were maintained in Minimum essential medium. The cells were transfected with the pcDNA3/hTRPM8 vector by electroporation and then selected with medium containing 0.8 mg/ml G418 for 10-15 days.
The following commercial compounds were used as ligands:
Activator: Cooling Agent 10 (Takasago CAS N. 87061-04-9)
Blocker: Capsazepine (SIGMA cat #D_5879)
The experimental activities were performed using FLIPR^TETRA instruments.
HEK293 cells stably transfected with TRPM8 gene were maintained in Minimum essential medium.
The TRPM8 cell line was analysed for the response to a library of compounds using a Ca^2+ mobilization-dependent fluorescence signal in 384 wells microtiter plate format. The analysis was performed using the FLIPR^TETRA (MDC) with the ICCD Camera.
The execution of the assay involved the use of three microtiter plates:
1. Assay plate, containing cells loaded with dye and prepared as follows:
Cells were seeded at 15000 c/well in Poly-D-Lysine coated 384 wells Microtiter Plates in complete medium (25 μl/well).
24 h after seeding, the cell plates were washed with Tyrode assay buffer by the Microplate Washer and 10 μL of Tyrode assay buffer was left in each well.
Cells were then loaded with 10 μL/well of the Fluo-4 NW dye solution by CyBi®-Well pipettor. Each bottle of Fluo4-NW dye (Molecular Probes cat. #F36206, component A) was re-suspended in 8 mL of Tyrode assay buffer and supplemented with 100 μL of water-soluble probenecid (MolecularProbes cat.#F36206, component B).
Dye loaded cell plates were incubated for 1 h at room temperature.
2. Compound Dilution Plate (FIG. 1), containing diluted test compounds, formulated as follows: […]
Column 1: wells containing Assay Buffer plus DMSO 0.5% final
Columns 3-22: wells containing Assay Buffer plus 0.5% DMSO final. To these wells the compounds to be tested were added at 3× concentration.
Column 23: alternating wells of Max Signal Control in second injection (Assay buffer) and Min Signal Control in second injection (Antagonist Capsazepine IC100, 50 μM) in Assay buffer plus 0.5% DMSO final;
Column 24: wells containing Capsazepine (Antagonist) at 8 concentrations in duplicate at final concentrations of 50 μM, 25 μM, 6.25 μM, 3.15 μM, 1.56 μM, 780 nM, […] in Assay buffer plus 0.5% DMSO final.
3. Activator Plate (FIG. 2), containing agonist Cooling Agent 10 at EC80, formulated as follows:
Column 1: Cooling Agent 10 (Agonist) at 8 concentrations dose response in duplicate at final concentrations of 100 μM, 31.6 μM, 10 μM, 3.16 μM, 1 μM, 316 nM, 100 nM, 31.6 nM in Assay buffer;
Columns 2-24: Cooling Agent 10 (Agonist) at EC80 (3 fold concentrated, 20 μM final) in Assay buffer.
The test was carried out according to a procedure comprising the following steps:
1. The samples contained in the wells of the Compound Plate were added to the corresponding wells of the Assay Plate by the FLIPR^TETRA, thus resulting in the addition in Columns 3-22 of the test compounds at 3× concentration to the cells of the assay plates. No mixing was performed in the assay wells and the signal of the emitted fluorescence was recorded for 300 seconds. 2. The samples contained in the wells of the Activator Plate were added to the corresponding wells of the Assay Plate by the FLIPR^TETRA, thus resulting in the addition in Columns 3-22 of the Assay Plate of the agonist compound in addition to the test compounds. The signal of the emitted fluorescence was recorded for 180 seconds.

Male Wistar rats [3] = test: Chronic constriction injury model, mechanical allodynia (Dynamic Plantar Aesthesiometer); type: in vivo, rat
Description: as §1, §2, §3
To assess for changes in sensation or in the development of mechanical allodynia, sensitivity to tactile stimulation was measured using the Dynamic Plantar Aesthesiometer (DPA, Ugo Basile, Italy). Ligated animals were placed in a chamber with a mesh metal floor covered by a plastic dome that enabled the animal to walk freely, but not to jump. The mechanical stimulus was then delivered in the mid-plantar skin of the hind paw. The cut-off was fixed at 50 g, while the increasing force rate (ramp duration) was settled at 20 sec. […]

TRPV4 = TRPV4 (Homo sapiens, UniProt Q9HBA0); test: Calcium influx counterassay, agonist GSK1016790A; type: cell-based; settings: 10 μM GSK1016790A = 100%, read-out: Normalized % inhibition (TRPV4)
TRPV4, sequence (Q9HBA0 whole entry, species assumed): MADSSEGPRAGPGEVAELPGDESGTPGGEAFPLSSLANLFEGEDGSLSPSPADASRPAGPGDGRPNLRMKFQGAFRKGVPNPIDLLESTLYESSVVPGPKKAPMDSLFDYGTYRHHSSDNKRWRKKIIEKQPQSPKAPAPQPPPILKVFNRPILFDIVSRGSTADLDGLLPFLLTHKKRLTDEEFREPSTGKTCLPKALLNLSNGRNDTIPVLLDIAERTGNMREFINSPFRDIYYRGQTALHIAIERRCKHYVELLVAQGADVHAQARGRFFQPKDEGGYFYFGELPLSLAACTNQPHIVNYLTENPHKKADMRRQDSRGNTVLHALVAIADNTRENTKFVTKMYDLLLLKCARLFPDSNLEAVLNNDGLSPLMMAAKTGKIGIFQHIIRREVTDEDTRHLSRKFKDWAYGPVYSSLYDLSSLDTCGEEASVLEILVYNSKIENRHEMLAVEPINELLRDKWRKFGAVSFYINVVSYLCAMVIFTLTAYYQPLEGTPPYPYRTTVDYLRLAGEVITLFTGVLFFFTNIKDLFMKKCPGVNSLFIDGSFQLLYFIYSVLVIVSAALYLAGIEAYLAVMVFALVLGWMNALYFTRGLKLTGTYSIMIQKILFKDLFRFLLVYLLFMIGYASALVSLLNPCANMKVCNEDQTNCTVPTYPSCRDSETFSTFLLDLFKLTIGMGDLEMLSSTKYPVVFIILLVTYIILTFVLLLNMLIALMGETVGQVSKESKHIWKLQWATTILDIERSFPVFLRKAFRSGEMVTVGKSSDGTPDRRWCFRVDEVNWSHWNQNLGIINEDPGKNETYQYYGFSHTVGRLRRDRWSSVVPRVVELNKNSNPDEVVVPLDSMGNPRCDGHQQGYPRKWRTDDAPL
Description: In parallel, the ability of each test compound to act as an antagonist of TRPV4 was evaluated with a calcium influx assay.

Log D = type: physicochemical
TRPV1 = TRPV1 (Homo sapiens, UniProt Q8NER1); test: Calcium influx counterassay, agonist capsaicin; type: cell-based; settings: 0.1 μM capsaicin = 100%, read-out: Normalized % inhibition (TRPV1)
TRPV1, sequence (Q8NER1 whole entry, species assumed): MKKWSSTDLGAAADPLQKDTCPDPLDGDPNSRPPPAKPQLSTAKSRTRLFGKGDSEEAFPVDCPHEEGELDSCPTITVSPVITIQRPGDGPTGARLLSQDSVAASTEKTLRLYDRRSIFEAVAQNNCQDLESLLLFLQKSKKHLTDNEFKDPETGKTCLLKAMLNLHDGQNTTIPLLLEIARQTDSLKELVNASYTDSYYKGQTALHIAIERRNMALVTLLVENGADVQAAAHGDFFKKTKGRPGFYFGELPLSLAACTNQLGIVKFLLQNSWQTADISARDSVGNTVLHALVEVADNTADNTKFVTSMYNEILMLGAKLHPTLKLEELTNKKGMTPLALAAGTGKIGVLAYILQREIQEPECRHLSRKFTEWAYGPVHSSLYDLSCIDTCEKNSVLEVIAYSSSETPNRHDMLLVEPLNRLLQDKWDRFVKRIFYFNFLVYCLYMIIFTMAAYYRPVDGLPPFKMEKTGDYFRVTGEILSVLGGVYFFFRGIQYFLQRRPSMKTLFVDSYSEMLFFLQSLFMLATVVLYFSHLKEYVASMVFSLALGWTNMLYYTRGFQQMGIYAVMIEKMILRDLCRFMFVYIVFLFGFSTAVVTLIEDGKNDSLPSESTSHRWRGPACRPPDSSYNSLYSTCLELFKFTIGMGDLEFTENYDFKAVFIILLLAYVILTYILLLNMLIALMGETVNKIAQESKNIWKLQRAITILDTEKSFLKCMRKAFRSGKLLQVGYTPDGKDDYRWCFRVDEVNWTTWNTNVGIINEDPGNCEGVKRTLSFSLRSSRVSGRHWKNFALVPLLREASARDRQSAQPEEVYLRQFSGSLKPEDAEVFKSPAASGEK
Description: In order to address more specifically the potential selectivity issues, a counterassay was carried out for 10, 45 and 118 against TRPV1 and TRPV4 ion channels, both involved in the nociception (Jhaveri M D, et al 2005. Eur. J. Neurosci. 22 (2): 361-70, Brierley S M et al, 2008, Gastroenterology. 2008 June; 134(7):2059-69. ). The ability of each test compound to act as an antagonist of TRPV1 was evaluated with a calcium influx assay.

TRPM8 [4] = target: T1, TRPM8
From the text: Values were considered significant if the test compound mean was three or more standard deviations away from the positive control agonist mean.

[5] = 10 mg/kg i.v., day 7 after nerve injury, 1 hour post-dose
[6] = 10 mg/kg i.v., day 7, 1 hour post-dose
[7] = day 14 after surgery, 1 h post-dose (Compound 118: 10 mg/kg i.v.)

O=C(O)c1sc(-c2ccc(Cl)cc2)nc1O [Compound 1, 2-(4-chlorophenyl)-4-hydroxy-1,3-thiazole-5-carboxylic acid]
inhibition of cold allodynia (Male Wistar rats [1]; [5]): 39 % of inhibition | pIC50 (TRPM8 [2]): > 5.00 | inhibition of mechanical allodynia (Male Wistar rats [3]; [5]): 26 % of inhibition

Cc1ccc(-c2nc(O)c(C(=O)O)s2)cc1 [Compound 2, 4-hydroxy-2-(4-methylphenyl)-1,3-thiazole-5-carboxylic acid]
pIC50 (TRPM8 [2]): > 5.00

CCOC(=O)c1sc(-c2ccccc2)nc1OCc1ccc(Cl)cc1 [Compound 27, ethyl 4-[(4-chlorobenzyl)oxy]-2-phenyl-1,3-thiazole-5-carboxylate]
pIC50 (TRPM8 [2]): > 5.00

CCOC(=O)c1sc(-c2ccccc2)nc1OC(=O)c1ccc(C(F)(F)F)cc1 [Compound 36, ethyl 2-phenyl-4-{[4-(trifluoromethyl)benzoyl]oxy}-1,3-thiazole-5-carboxylate]
pIC50 (TRPM8 [2]): > 5.00

CCOC(=O)c1sc(-c2ccc(Cl)cc2)nc1OCCN [Compound 41, ethyl 4-(2-aminoethoxy)-2-(4-chlorophenyl)-1,3-thiazole-5-carboxylate]
pIC50 (TRPM8 [2]): > 5.00

CCOC(=O)c1sc(-c2ccc(C)cc2)nc1NCCN [Compound 67, ethyl 4-[(2-aminoethyl)amino]-2-(4-methylphenyl)-1,3-thiazole-5-carboxylate]
pIC50 (TRPM8 [2]): > 5.00

CCOC(=O)c1sc(-c2ccc(Cl)cc2)nc1NCCNC [Compound 68, ethyl 2-(4-chlorophenyl)-4-{[2-(methylamino)ethyl]amino}-1,3-thiazole-5-carboxylate]
pIC50 (TRPM8 [2]): > 5.00

CCOC(=O)c1sc(-c2ccc(Cl)cc2)nc1NCCN [Compound 70, ethyl 4-[(2-aminoethyl)amino]-2-(4-chlorophenyl)-1,3-thiazole-5-carboxylate]
pIC50 (TRPM8 [2]): > 5.00

Cc1ccc(-c2nc(OCc3ccc(Cl)cc3)c(C(=O)O)s2)cc1 [Compound 83, sodium 4-[(4-chlorobenzyl)oxy]-2-(4-methylphenyl)-1,3-thiazole-5-carboxylate]
pIC50 (TRPM8 [2]): > 5.00

O=C(O)c1sc(-c2ccc(Cl)cc2)nc1OCc1ccc(Cl)cc1 [Compound 84, sodium 4-(4-chlorobenzyloxy)-2-(4-chlorophenyl)-1,3-thiazole-5-carboxylate]
pIC50 (TRPM8 [2]): > 5.00

CCn1nnc(-c2sc(-c3cccc(F)c3)nc2O)n1 [Compound 118, 2-(3-fluorophenyl)-5-(2-ethyl-2H-tetrazol-5-yl)-1,3-thiazol-4-ol]
inhibition at 1 µM (TRPV4; Test Conc. 1 uM): 2% | inhibition at 10 µM (TRPV4; Test Conc. 10 uM): 8.9% | cold allodynia (Male Wistar rats [1]; [6]): significantly attenuated | inhibition of cold allodynia (Male Wistar rats [1]; [7]): 52 % of inhibition | log D values (Log D): low | inhibition at 1 µM (TRPV1; Test Conc. 1 uM): 1.2% | inhibition at 10 µM (TRPV1; Test Conc. 10 uM): 2.3% | mechanical allodynia (Male Wistar rats [3]; [6]): significantly attenuated | inhibition of mechanical allodynia (Male Wistar rats [3]; [7]): no inhibition | antagonist activity in calcium influx assay (TRPM8 [4]): confirmed the antagonist activity
